Reference: paper PMC7155171, “Probing the Open Global Health Chemical Diversity Library for Multistage-Active Starting Points for Next-Generation Antimalarials” (ACS Infectious Diseases, 2020)

Legend:
[1] = test system: P. falciparum (NF54) stage V gametocytes; assay: Stage V gametocyte viability assay (MitoTracker Red CMXRos high content imaging); format: cell-based, Plasmodium falciparum; conditions: Plasmodium falciparum, NF54, 72 h; for IC50: read-out: Stg V Gam dose response IC50 (µM) (n=3), 10-point dose response, n=3, 72 h; for inhibition at 2 µM: read-out: Stg V Gam primary screen: Inhibition % (2uM) (n=2)
[2] = HepG2 cytotoxicity screening (CellTiter-Glo); conditions: human, uninfected HepG2-A16-CD81 (EGFP) hepatocytes
[3] = test system: HepG2-A16-CD81 hepatocytes; assay: HepG2 cytotoxicity screening (CellTiter-Glo); conditions: for HepG2 cytotoxicity 12pt dose response: Maximum inhibition (%): 12pt dose response
[4] = test system: P. berghei liver stage (PbLuc); assay: P. berghei luciferase liver stage (PbLuc) assay in HepG2-A16-CD81 hepatocytes; format: cell-based, Plasmodium berghei; conditions: Plasmodium berghei; for IC50: HepG2-A16-CD81, 12pt dose response, read-out: PbLuc 12pt dose response: IC50; for Emax: HepG2-A16-CD81, 48 h, 12pt dose response, maximum inhibition
[5] = target: recombinant firefly luciferase (Photinus pyralis, UniProt P08659); assay: biochemical; conditions: dose response; for Emax: maximum inhibition, read-out: rLuc inhibition dose response: Maximum inhibition (%); for IC50: read-out: rLuc inhibition dose response: IC50
Chain of recombinant firefly luciferase (P08659 whole entry): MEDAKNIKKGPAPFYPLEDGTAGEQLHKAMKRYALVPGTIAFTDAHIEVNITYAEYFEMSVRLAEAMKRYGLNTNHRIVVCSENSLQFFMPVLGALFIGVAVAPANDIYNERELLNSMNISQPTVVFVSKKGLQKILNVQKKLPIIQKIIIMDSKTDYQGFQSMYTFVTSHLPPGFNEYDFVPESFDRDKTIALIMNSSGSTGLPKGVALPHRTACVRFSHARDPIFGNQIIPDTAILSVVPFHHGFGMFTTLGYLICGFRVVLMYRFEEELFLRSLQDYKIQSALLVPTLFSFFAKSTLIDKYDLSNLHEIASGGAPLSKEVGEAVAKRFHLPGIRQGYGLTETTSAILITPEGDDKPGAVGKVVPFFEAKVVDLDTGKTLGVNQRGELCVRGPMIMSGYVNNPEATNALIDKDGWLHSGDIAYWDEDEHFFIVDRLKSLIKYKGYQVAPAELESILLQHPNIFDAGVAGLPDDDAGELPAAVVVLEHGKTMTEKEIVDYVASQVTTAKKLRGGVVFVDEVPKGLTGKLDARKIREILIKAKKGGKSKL

| SMILES | IC50 [1] [µM] | inhibition at 2 µM [1] [%] | IC50 [2] [µM] | HepG2 Cytotoxicity primary screen (2uM): % Inhibition [3] [%] | HepG2 cytotoxicity 12pt dose response: Maximum inhibition (%) [3] [%] | IC50 [4] [µM] | Emax [4] [%] | Emax [5] [%] | IC50 [5] [µM] | inhibition at 2 µM [2] [%] |
| --- | --- | --- | --- | --- | --- | --- | --- | --- | --- | --- |
| CC(C)(C)c1cn2c(n1)C(CNCc1cnn3ccccc13)CCC2 (stereo not drawn) [DDD01062586, CC(C)(C)C1=CN2CCCC(CNCC3=C4C=CC=CN4N=C3)C2=N1] | 0.11 | 84.4 | – | – | – | – | – | – | – | – |
| Cc1cn2c(n1)C(CNCc1cccc3c1OCO3)CCC2 (stereo not drawn) [DDD01073293, CC1=CN2CCCC(CNCC3=CC=CC4=C3OCO4)C2=N1] | 1.62 | 66.7 | – | – | – | – | – | – | – | – |
| CN(C)c1nc(N)nc(CN2CCCC2c2cccs2)n1 (stereo not drawn) [DDD01075894, CN(C)C1=NC(N)=NC(CN2CCCC2C2=CC=CS2)=N1] | 2.25 | 66 | – | – | – | – | – | – | – | – |
| CC(C)N(CCNC(=O)c1[nH]nc2ccc(I)cc12)C(C)C [DDD01078603, CC(C)N(CCNC(=O)C1=C2C=C(I)C=CC2=NN1)C(C)C] | > 10 | 53.7 | – | – | – | – | – | – | – | – |
| COc1c(C)cnc(CN(C)C2CCCCC2)c1C [DDD01078822, COC1=C(C)C=NC(CN(C)C2CCCCC2)=C1C] | 1.45 | 84.8 | – | – | – | – | – | – | – | – |
| O=C(CN1CCc2sccc2C1)Nc1ccnc2ccnn12 [DDD01078865, O=C(CN1CCC2=C(C1)C=CS2)NC1=CC=NC2=CC=NN12] | 0.116 | 96.4 | – | – | – | – | – | – | – | – |
| CN1CCC(NCC(O)c2cccc(OCc3ccccc3)c2)CC1 (stereo not drawn) [DDD01079164, CN1CCC(CC1)NCC(O)C1=CC=CC(OCC2=CC=CC=C2)=C1] | 6.06 | 53.3 | – | – | – | – | – | – | – | – |
| Cc1cccc(CN2CCCn3c(nnc3Cn3cccn3)C2)n1 [DDD01084631, CC1=CC=CC(CN2CCCN3C(CN4C=CC=N4)=NN=C3C2)=N1] | 1.04 | 51.5 | – | – | – | – | – | – | – | – |
| CC(=O)c1ccc(N2CCC(CO)(CCOc3ccccc3)CC2)nc1 [UCSD-0839049] | – | – | > 25 | 17.47 | 60.3 | 14.6 | 105 | 13.2 | > 25 | – |
| Cc1nc(N2CC[C@@H](NC(=O)c3cnccn3)[C@H](O)C2)c2ccsc2n1 [UCSD-0839060] | – | – | > 25 | -14.64 | 48.7 | 10.4 | 90.6 | 0.656 | > 25 | – |
| c1ccc(-c2ccc(C3CNCCO3)nc2)cc1 (stereo not drawn) [UCSD-0839460] | – | – | > 25 | 6.27 | -1.08 | < 0.000141 | 80.4 | 89.9 | 0.22 | – |
| COc1cccc(-c2noc(C3CCN(Cc4cn(C)nc4C)C3)n2)c1 (stereo not drawn) [UCSD-0839537] | – | – | > 25 | – | 4.79 | 9.44 | 86.1 | 60.2 | 24 | 5.3 |
| COc1cc(CNCc2ccnc(N3CCCCC3)c2)cc(OC)c1 [UCSD-0841255] | – | – | > 25 | -2.79 | 36.6 | 11.3 | 85 | 1.69 | > 25 | – |
| CC(C)c1n[nH]c(C(=O)Nc2ccccn2)c1Br [UCSD-0842403] | – | – | > 50 | – | 31.1 | < 0.000282 | 97.3 | 97.1 | < 0.0244 | 24.9 |
| COc1c(C)cnc(CN2CCC(N(C)C(C)C(N)=O)CC2)c1C (stereo not drawn) [UCSD-0844796] | – | – | > 25 | 1.63 | -0.307 | 11.7 | 87.4 | -2.93 | > 25 | – |
| Cc1noc(NC(=O)c2ccc(OC(F)(F)F)cc2)n1 [UCSD-0844950] | – | – | 23.7 | – | 50.3 | 8.23 | 93.2 | 29.1 | > 25 | 4.58 |
| Cc1noc(NC(=O)c2ccc(Br)s2)n1 [UCSD-0844983] | – | – | > 25 | 5.11 | 28.5 | 14.7 | 88.4 | -1.54 | > 25 | – |
| CC(C)N(CC(N)=O)Cc1csc(COc2ccc(F)cc2)n1 [UCSD-0845986] | – | – | 23.1 | 6.02 | 68.7 | 14.6 | 97.4 | 5.14 | > 25 | – |
| Cc1cc(CN2CCN(C(c3ccccc3)c3ccccc3)CC2)no1 [UCSD-0846071] | – | – | > 25 | – | 4.68 | 8.97 | 104 | 14.1 | > 25 | 0.21 |
| Cc1ccoc1C(=O)NC1CCN(Cc2csc3c(F)cccc23)CC1 [UCSD-0846562] | – | – | > 25 | -2.96 | 25.1 | 11.1 | – | 3.24 | > 25 | – |
